Results from US20250025443A1, “COMPOUNDS AND METHODS FOR TREATING CORONA VIRUSES” (CLEAR CREEK BIO, INC., priority 2021, published 2025).

Target: SARS-CoV-2 Papain-Like Protease (PLpro) (Severe acute respiratory syndrome coronavirus 2 (2019-nCoV) (SARS-CoV-2), UniProt P0DTD1)
Experiment: biochemical
Details: PLpro enzymatic fluorescence assay; class symbols; read-out: PLpro IC50

Compound	IC50 [nM]
Cc1ccc(OC[C@@H]2CCN2)cc1C(=O)NC1(c2cc(-c3ccn(C(F)F)n3)cc3ncccc23)CC1 [Compound 656, (S)-5-(Azetidin-2-ylmethoxy)-N-(1-(7-(1-(difluoromethyl)-1H-pyrazol-3-yl)quinolin-5-yl)cyclopropyl)-2-methylbenzamide]	< 100
CC(=O)c1ccc(-c2cc(C3(NC(=O)c4cc(OC[C@@H]5CCN5C)ccc4C)CC3)c3cccnc3c2)s1 [Compound 657, (S)-N-(1-(7-(5-Acetylthiophen-2-yl)quinolin-5-yl)cyclopropyl)-2-methyl-5-((1-methylazetidin-2-yl)methoxy)benzamide]	< 100
Cc1ccc(OC[C@@H]2CCN2)cc1C(=O)NC1(c2cc(-c3ccc(C#N)s3)cc3ncccc23)CC1 [Compound 658, (S)-5-(Azetidin-2-ylmethoxy)-N-(1-(7-(5-cyanothiophen-2-yl)quinolin-5-yl)cyclopropyl)-2-methylbenzamide]	< 100
Cc1ccc(OC[C@@H]2CCN2C)cc1C(=O)NC1(c2cc(-c3ccn(-c4ccccc4)n3)cc3ncccc23)CC1 [Compound 659, (S)-2-Methyl-5-((1-methylazetidin-2-yl)methoxy)-N-(1-(7-(1-phenyl-1H-pyrazol-3-yl)quinolin-5-yl)cyclopropyl)benzamide]	< 100
C=C(C)c1cc(C2(NC(=O)c3cc(OC[C@H](C)NC)ccc3C)CC2)c2cccnc2c1 [Compound 660, (S)-2-Methyl-5-(2-(methylamino)propoxy)-N-(1-(7-(prop-1-en-2-yl)quinolin-5-yl)cyclopropyl)benzamide]	< 100
C=Cc1cc(C2(NC(=O)c3cc(OC[C@H](C)NC)ccc3C)CC2)c2cccnc2c1 [Compound 661, (S)-2-Methyl-5-(2-(methylamino)propoxy)-N-(1-(7-vinylquinolin-5-yl)cyclopropyl)benzamide]	< 100
Cc1ccc(OC[C@@H]2CCN2)cc1C(=O)NC1(c2cc(C3=CCCCC3)cc3ncccc23)CC1 [Compound 662, (S)-5-(Azetidin-2-ylmethoxy)-N-(1-(7-(cyclohex-1-en-1-yl)quinolin-5-yl)cyclopropyl)-2-methylbenzamide]	< 100
Cc1ccc(OC[C@@H]2CCN2C)cc1C(=O)NC1(c2cc(C3=CCCCC3)cc3ncccc23)CC1 [Compound 663, (S)—N-(1-(7-(Cyclohex-1-en-1-yl)quinolin-5-yl)cyclopropyl)-2-methyl-5-((1-methylazetidin-2-yl)methoxy)benzamide]	< 100
Cc1ccc(OC[C@@H]2CCN2)cc1C(=O)NC1(c2cc(-c3ccn(-c4ccccc4)n3)cc3ncccc23)CC1 [Compound 664, (S)-5-(Azetidin-2-ylmethoxy)-2-methyl-N-(1-(7-(1-phenyl-1H-pyrazol-3-yl)quinolin-5-yl)cyclopropyl)benzamide]	< 100
Cc1ccc(OC[C@@H]2CCN2)cc1C(=O)NC1(c2cc(-c3cnn(C)c3)cc3ncccc23)CC1 [Compound 665, (S)-5-(Azetidin-2-ylmethoxy)-2-methyl-N-(1-(7-(1-methyl-1H-pyrazol-4-yl)quinolin-5-yl)cyclopropyl)benzamide]	< 100
Cc1ccc(OC[C@@H]2CCN2)cc1C(=O)NC1(c2cc(-c3ccc(F)c(Cl)c3)cc3ncccc23)CC1 [Compound 666, (S)-5-(Azetidin-2-ylmethoxy)-N-(1-(7-(3-chloro-4-fluorophenyl)quinolin-5-yl)cyclopropyl)-2-methylbenzamide]	< 100
Cc1ccc(OC[C@@H]2CCN2)cc1C(=O)NC1(c2cc(/C=C/C3CC3)cc3ncccc23)CC1 [Compound 667, (S,E)-5-(Azetidin-2-ylmethoxy)-N-(1-(7-(2-cyclopropylvinyl)quinolin-5-yl)cyclopropyl)-2-methylbenzamide]	< 100
Cc1ccc(OC[C@@H]2CCN2C)cc1C(=O)NC1(c2cc(-c3sccc3Cl)cc3ncccc23)CC1 [Compound 668, (S)-N-(1-(7-(3-Chlorothiophen-2-yl)quinolin-5-yl)cyclopropyl)-2-methyl-5-((1-methylazetidin-2-yl)methoxy)benzamide]	< 100
Cc1ccc(OC[C@@H]2CCN2C)cc1C(=O)NC1(c2cc(-c3ccc(CN4CCCC4)s3)cc3ncccc23)CC1 [Compound 669, (S)-2-Methyl-5-((1-methylazetidin-2-yl)methoxy)-N-(1-(7-(5-(pyrrolidin-1-ylmethyl)thiophen-2-yl)quinolin-5-yl)cyclopropyl)benzamide]	< 100
Cc1ccc(OC[C@@H]2CCN2C)cc1C(=O)NC1(c2cc(-c3cnn(C)c3)cc3ncccc23)CC1 [Compound 670, (S)-2-Methyl-N-(1-(7-(1-methyl-1H-pyrazol-4-yl)quinolin-5-yl)cyclopropyl)-5-((1-methylazetidin-2-yl)methoxy)benzamide]	< 100
Cc1cc(-c2cc(C3(NC(=O)c4cc(OC[C@@H]5CCN5C)ccc4C)CC3)c3cccnc3c2)c(C)o1 [Compound 671, (S)—N-(1-(7-(2,5-Dimethylfuran-3-yl)quinolin-5-yl)cyclopropyl)-2-methyl-5-((1-methylazetidin-2-yl)methoxy)benzamide]	< 100

Compound	IC50 [nM]
Cc1ccc(OC[C@@H]2CCN2C)cc1C(=O)NC1(c2cc(-c3ccc(=O)[nH]c3)cc3ncccc23)CC1 [Compound 672, (S)-2-Methyl-5-((1-methylazetidin-2-yl)methoxy)-N-(1-(7-(6-oxo-1,6-dihydropyridin-3-yl)quinolin-5-yl)cyclopropyl)benzamide]	< 100
Cc1nnc(-c2cc(C3(NC(=O)c4cc(OC[C@@H]5CCN5)ccc4C)CC3)c3cccnc3c2)s1 [Compound 673, (S)-5-(Azetidin-2-ylmethoxy)-2-methyl-N-(1-(7-(5-methyl-1,3,4-thiadiazol-2-yl)quinolin-5-yl)cyclopropyl)benzamide]	< 100
Cc1ccc(OC[C@@H]2CCN2)cc1C(=O)NC1(c2cc(-c3ccc(=O)[nH]c3)cc3ncccc23)CC1 [Compound 674, (S)-5-(Azetidin-2-ylmethoxy)-2-methyl-N-(1-(7-(6-oxo-1,6-dihydropyridin-3-yl)quinolin-5-yl)cyclopropyl)benzamide]	< 100
Cc1ccc(OC[C@@H]2CCN2)cc1C(=O)NC1(c2cc(-c3ccc(F)cc3)cc3ncccc23)CC1 [Compound 675, (S)-5-(Azetidin-2-ylmethoxy)-N-(1-(7-(4-fluorophenyl)quinolin-5-yl)cyclopropyl)-2-methylbenzamide]	< 100
Cc1ccc(OC[C@@H]2CCN2C)cc1C(=O)NC1(c2cc(C(C)O)cc3ncccc23)CC1 (stereo partly drawn) [Compound 676, N-(1-(7-(1-Hydroxyethyl)quinolin-5-yl)cyclopropyl)-2-methyl-5-(((S)-1-methylazetidin-2-yl)methoxy)benzamide]	< 100
CCc1cc(C2(NC(=O)c3cc(OC[C@@H]4CCN4)ccc3C)CC2)c2cccnc2c1 [Compound 677, (S)-5-(Azetidin-2-ylmethoxy)-N-(1-(7-ethylquinolin-5-yl)cyclopropyl)-2-methylbenzamide]	< 100
Cc1ccc(OC[C@@H]2CCN2C)cc1C(=O)NC1(c2cc(-c3ccc(F)cc3)cc3ncccc23)CC1 [Compound 678, (S)—N-(1-(7-(4-Fluorophenyl)quinolin-5-yl)cyclopropyl)-2-methyl-5-((1-methylazetidin-2-yl)methoxy)benzamide]	< 100
Cc1nnc(-c2cc(C3(NC(=O)c4cc(OC[C@@H]5CCN5)ccc4C)CC3)c3cccnc3c2)o1 [Compound 680, (S)-5-(Azetidin-2-ylmethoxy)-2-methyl-N-(1-(7-(5-methyl-1,3,4-oxadiazol-2-yl)quinolin-5-yl)cyclopropyl)benzamide]	< 100
Cc1ccc(OC[C@@H]2CCN2C)cc1C(=O)NC1(c2cc(-c3ncccn3)cc3ncccc23)CC1 [Compound 681, (S)-2-Methyl-5-((1-methylazetidin-2-yl)methoxy)-N-(1-(7-(pyrimidin-2-yl)quinolin-5-yl)cyclopropyl)benzamide]	< 100
Cc1ccc(OC[C@@H]2CCN2)cc1C(=O)NC1(c2cc(-c3ncccn3)cc3ncccc23)CC1 [Compound 682, (S)-5-(Azetidin-2-ylmethoxy)-2-methyl-N-(1-(7-(pyrimidin-2-yl)quinolin-5-yl)cyclopropyl)benzamide]	< 100
Cc1ccc(OC[C@@H]2CCN2C)cc1C(=O)NC1(c2cc(N3CCCC3)cc3ncccc23)CC1 [Compound 683, (S)-2-Methyl-5-((1-methylazetidin-2-yl)methoxy)-N-(1-(7-(pyrrolidin-1-yl)quinolin-5-yl)cyclopropyl)benzamide]	< 100
Cc1ccc(OC[C@@H]2CCN2C)cc1C(=O)NC1(c2cc(/C=C/C3CC3)cc3ncccc23)CC1 [Compound 684, (S,E)-N-(1-(7-(2-Cyclopropylvinyl)quinolin-5-yl)cyclopropyl)-2-methyl-5-((1-methylazetidin-2-yl)methoxy)benzamide]	< 100
Cc1ccc(OC[C@@H]2CCN2)cc1C(=O)NC1(c2cc(-c3ccc4ncnn4c3)cc3ncccc23)CC1 [Compound 685, (S)-N-(1-(7-([1,2,4]Triazolo[1,5-a]pyridin-6-yl)quinolin-5-yl)cyclopropyl)-5-(azetidin-2-ylmethoxy)-2-methylbenzamide]	< 100
Cc1ccc(OC[C@@H]2CCN2)cc1C(=O)NC1(c2cc(-c3ccc4nccn4c3)cc3ncccc23)CC1 [Compound 686, (S)-5-(Azetidin-2-ylmethoxy)-N-(1-(7-(imidazo[1,2-a]pyridin-6-yl)quinolin-5-yl)cyclopropyl)-2-methylbenzamide]	< 100
Cc1ccc(OC[C@@H]2CCN2C)cc1C(=O)NC1(c2cc(-c3ccc(F)c(Cl)c3)cc3ncccc23)CC1 [Compound 687, (S)—N-(1-(7-(3-Chloro-4-fluorophenyl)quinolin-5-yl)cyclopropyl)-2-methyl-5-((1-methylazetidin-2-yl)methoxy)benzamide]	< 100
Cc1ccc(OC[C@@H]2CCN2)cc1C(=O)NC1(c2cc(-c3cnc(N4CCCCC4)nc3)cc3ncccc23)CC1 [Compound 688, (S)-5-(Azetidin-2-ylmethoxy)-2-methyl-N-(1-(7-(2-(piperidin-1-yl)pyrimidin-5-yl)quinolin-5-yl)cyclopropyl)benzamide]	< 100
